Data set [1] concerns the target T1, Sodium channel protein type 9 subunit alpha (Homo sapiens, UniProt Q15858). The experiment in a line: Inhibition of human Nav1.7 expressed in HEK293 cells at 10 uM measured for 48 hrs by whole-cell patch clamp electrophysiology assay. Type of data set: cell-based.
Target sequence in this assay (Q15858 whole entry, looked up): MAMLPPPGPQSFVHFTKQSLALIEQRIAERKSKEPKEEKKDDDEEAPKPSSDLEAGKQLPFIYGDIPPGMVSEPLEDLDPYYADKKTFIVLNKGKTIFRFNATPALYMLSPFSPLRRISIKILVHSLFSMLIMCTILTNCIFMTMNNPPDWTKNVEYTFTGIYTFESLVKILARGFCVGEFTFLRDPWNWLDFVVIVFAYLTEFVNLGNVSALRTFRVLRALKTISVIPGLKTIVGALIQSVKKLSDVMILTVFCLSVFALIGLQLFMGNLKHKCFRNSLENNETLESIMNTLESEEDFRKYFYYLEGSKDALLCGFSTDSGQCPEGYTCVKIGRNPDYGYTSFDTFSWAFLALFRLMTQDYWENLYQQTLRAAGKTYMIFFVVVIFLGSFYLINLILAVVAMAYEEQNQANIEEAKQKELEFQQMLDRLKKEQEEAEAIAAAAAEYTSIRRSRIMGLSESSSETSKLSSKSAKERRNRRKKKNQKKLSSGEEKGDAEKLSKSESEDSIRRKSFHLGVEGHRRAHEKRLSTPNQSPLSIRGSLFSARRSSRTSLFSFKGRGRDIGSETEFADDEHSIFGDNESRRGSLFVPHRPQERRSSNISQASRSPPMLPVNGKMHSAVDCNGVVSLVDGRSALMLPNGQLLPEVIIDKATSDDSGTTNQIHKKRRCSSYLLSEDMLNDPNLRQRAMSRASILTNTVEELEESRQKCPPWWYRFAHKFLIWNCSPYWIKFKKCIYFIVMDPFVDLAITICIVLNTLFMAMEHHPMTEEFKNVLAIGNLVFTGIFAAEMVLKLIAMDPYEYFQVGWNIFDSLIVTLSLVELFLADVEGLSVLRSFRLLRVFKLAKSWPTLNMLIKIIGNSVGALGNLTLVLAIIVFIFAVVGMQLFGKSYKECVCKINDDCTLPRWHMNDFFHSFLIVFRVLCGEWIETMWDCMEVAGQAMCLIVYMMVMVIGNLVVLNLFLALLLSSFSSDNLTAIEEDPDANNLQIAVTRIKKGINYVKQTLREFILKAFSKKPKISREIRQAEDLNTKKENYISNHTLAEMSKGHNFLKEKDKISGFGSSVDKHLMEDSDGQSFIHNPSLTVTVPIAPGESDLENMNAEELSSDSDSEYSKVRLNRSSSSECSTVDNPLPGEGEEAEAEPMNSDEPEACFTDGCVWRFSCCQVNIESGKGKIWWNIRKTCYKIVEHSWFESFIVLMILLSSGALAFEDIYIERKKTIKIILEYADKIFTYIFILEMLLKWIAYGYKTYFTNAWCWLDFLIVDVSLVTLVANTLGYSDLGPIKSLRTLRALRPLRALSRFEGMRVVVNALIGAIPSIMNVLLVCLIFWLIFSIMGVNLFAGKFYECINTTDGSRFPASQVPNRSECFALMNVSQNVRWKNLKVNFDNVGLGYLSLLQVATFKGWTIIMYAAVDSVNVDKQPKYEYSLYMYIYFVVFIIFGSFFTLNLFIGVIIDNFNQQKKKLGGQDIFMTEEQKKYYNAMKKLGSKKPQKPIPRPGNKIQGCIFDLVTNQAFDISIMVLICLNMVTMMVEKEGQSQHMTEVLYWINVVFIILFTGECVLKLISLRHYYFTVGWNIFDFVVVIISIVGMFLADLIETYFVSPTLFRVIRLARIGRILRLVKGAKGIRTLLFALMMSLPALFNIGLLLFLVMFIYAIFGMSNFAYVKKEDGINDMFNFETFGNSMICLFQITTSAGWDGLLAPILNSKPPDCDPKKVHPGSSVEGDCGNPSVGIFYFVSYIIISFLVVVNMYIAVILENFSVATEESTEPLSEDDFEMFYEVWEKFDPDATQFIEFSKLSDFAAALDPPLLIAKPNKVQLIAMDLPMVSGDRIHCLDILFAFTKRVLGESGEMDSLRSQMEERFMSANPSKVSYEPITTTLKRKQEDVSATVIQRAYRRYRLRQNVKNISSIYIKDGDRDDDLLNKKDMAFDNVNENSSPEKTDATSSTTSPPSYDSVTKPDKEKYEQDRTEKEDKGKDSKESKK
For data set [2], the target named is T1, Sodium channel protein type 9 subunit alpha. The experiment in a line: Inhibition of human Nav1.7 expressed in HEK293 cells at 1 uM measured for 48 hrs by whole-cell patch clamp electrophysiology assay. Format: cell-based. Background: Patch clamp records ionic current or voltage across a cell membrane.
Target sequence in this assay (Q15858 whole entry, looked up): as above
For data set [3] the target is unchanged. In words: Inhibition of Nav1.7 (unknown origin) by whole-cell patch clamp assay.
Target sequence in this assay (Q15858 whole entry): as the sequence (Q15858 whole entry, looked up) above
Data set [4] has as its target Sodium channel protein type 5 subunit alpha (Homo sapiens, UniProt Q14524). The experiment in a line: Inhibition of Nav1.5 (unknown origin) by whole-cell patch clamp assay.
The target of data set [5] is Sodium channel protein type 4 subunit alpha (Homo sapiens, UniProt P35499). In words: Inhibition of Nav1.4 (unknown origin) by whole-cell patch clamp assay.
For a further data set, the species on record is Homo sapiens. The experiment in a line: Selectivity ratio of IC50 for inhibition of Nav1.7 (unknown origin) to IC50 for inhibition of Nav1.4 (unknown origin).
In data set [6] the test system is Mus musculus. In words: Antinociceptive activity in Kunming mouse at 20 mg/kg,ip measured for 1 to 4 hrs after administration by hot plate test. Type of data set: functional, organism-based. As to conditions: time 1-4 hrs. (In hot-plate and tail-flick tests a longer latency is read as antinociception.)
The test system of data set [7] is Mus musculus. In words: Antinociceptive activity in Kunming mouse at 10 mg/kg,ip measured for 1 to 4 hrs after administration by hot plate test. Format: functional, organism-based. Particulars: time 1-4 hrs.
Data set [8] relates to Mus musculus. In words: Antinociceptive activity in Kunming mouse at 40 mg/kg,ip measured for 1 to 4 hrs after administration by hot plate test. Type of data set: functional, organism-based. Particulars: time 1-4 hrs.
Data set [9] relates to Mus musculus. In words: Antinociceptive activity in Kunming mouse assessed as inhibition of acetic acid-induced abdominal constrictions at 10 to 40 mg/kg,ip pre-administrated for 2 hrs followed by acetic acid induction and measured for 15 mins by writhing test. Format: functional, organism-based. As to conditions: dose 10-40 mg/kg, time 135.0 min. (In general: An intraperitoneal irritant provokes the stretching counted in writhing tests.)

Data set [10] can be described thus: Sedative activity in Kunming mouse assessed as effect on spontaneous locomotor activity at 20 mg/kg,ip administrated for 2 hrs and measured for 30 mins by open field test. Particulars: in vivo, 2.5 h. Format: toxicity, organism-based.

Calls of active or inactive are those of the source. The calls are words filed in the database; no cut-off is given here.

Chain of Sodium channel protein type 5 subunit alpha (Q14524 whole entry): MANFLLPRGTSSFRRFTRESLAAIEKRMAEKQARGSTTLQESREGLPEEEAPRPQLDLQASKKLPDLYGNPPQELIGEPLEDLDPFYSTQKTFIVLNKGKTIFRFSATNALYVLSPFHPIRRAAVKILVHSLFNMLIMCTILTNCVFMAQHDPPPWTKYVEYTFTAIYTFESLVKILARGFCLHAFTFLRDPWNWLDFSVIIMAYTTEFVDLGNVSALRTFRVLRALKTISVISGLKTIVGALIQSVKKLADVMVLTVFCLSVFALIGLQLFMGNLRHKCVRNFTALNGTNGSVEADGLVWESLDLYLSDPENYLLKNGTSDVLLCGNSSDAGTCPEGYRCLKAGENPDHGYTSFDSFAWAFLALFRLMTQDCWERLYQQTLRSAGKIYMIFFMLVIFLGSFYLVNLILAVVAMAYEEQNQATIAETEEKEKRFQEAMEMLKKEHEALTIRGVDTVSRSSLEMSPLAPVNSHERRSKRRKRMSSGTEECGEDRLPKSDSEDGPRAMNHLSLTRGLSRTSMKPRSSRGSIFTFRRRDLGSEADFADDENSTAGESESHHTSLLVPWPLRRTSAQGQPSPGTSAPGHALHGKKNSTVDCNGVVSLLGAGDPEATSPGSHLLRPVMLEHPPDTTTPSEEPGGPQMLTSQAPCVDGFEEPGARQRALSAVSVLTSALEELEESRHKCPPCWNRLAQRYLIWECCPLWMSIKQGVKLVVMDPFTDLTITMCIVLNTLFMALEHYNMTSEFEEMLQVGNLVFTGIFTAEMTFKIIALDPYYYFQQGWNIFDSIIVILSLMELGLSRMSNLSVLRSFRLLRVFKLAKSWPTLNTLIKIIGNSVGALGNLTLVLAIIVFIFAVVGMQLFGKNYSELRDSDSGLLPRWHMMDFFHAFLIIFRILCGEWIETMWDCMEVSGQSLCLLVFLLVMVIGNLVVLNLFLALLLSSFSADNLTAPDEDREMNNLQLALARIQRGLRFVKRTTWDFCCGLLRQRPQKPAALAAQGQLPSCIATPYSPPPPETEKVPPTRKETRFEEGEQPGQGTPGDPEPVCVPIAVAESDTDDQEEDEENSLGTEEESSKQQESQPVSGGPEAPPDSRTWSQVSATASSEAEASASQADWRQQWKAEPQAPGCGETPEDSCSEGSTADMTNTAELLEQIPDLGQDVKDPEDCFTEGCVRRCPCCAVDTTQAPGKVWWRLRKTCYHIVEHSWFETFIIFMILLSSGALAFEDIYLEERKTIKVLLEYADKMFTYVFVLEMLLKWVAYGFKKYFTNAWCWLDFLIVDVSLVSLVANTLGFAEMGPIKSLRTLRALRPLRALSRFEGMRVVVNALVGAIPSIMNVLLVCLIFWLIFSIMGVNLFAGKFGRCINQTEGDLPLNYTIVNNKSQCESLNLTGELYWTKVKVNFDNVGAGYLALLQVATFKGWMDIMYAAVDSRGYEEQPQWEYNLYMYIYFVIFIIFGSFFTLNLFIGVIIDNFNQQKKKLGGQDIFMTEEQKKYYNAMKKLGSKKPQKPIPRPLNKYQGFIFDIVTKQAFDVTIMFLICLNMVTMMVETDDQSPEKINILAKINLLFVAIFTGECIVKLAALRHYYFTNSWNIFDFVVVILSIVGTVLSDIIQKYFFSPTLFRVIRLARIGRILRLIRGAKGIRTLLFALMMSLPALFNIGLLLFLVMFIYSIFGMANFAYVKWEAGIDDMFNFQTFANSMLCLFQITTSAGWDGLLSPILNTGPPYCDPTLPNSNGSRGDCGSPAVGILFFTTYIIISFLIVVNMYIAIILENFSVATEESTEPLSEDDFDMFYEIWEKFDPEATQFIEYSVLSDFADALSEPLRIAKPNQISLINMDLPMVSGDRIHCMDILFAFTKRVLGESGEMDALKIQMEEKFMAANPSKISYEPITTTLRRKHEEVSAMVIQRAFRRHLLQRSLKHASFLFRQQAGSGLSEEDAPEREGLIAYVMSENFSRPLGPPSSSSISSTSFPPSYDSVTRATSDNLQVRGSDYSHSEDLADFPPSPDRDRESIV

As for `O=C(NS(=O)(=O)C1CC1)c1cc(Cl)c(OCCC2CCC3(CCN(CCc4ccccc4)CC3)C2)cc1F` (stereo not given), the inhibition (as a rule, the change of the read-out against control, counted positive when it falls) is 75.1% in [1] and 27.5% in data set [2].

With `O=C(NS(=O)(=O)C1CC1)c1ccc(OC2CC3(CCN(Cc4ccccc4)CC3)C2)cc1`, the inhibition in data set [1] stood at 21.5%.

Take `O=C(NS(=O)(=O)C1CC1)c1cc(C2CC2)c(OCCC2CCC3(CCN(Cc4ccccc4)CC3)C2)cc1F` (stereo not given): the inhibition in data set [1] worked out at 96.5%.

Take `CCN1CCC2(CCC(Oc3ccc(C(=O)NS(=O)(=O)C4CC4)cc3)CC2)CC1`: the inhibition in data set [1] came out at 22.9%.

Take `O=C(NS(=O)(=O)C1CC1)c1ccc(OCC2CCC3(CCN(Cc4ccccc4)CC3)C2)cc1` (stereo not given): in [1], the inhibition is 57.4%.

For `O=C(NS(=O)(=O)C1CC1)c1ccc(OC2CCC3(CCNCC3)CC2)cc1`, the inhibition in [1] was found to be 11.2%.

Consider `CCc1ccc(CN2CCC3(CCC(CCOc4cc(F)c(C(=O)NS(=O)(=O)C5CC5)cc4Cl)C3)CC2)cc1` (stereo not given), for which the results for the inhibition in [1] and in data set [2] were 93.9% and 29.4%, respectively.

For `Cc1cc(C(=O)NS(=O)(=O)C2CC2)c(F)cc1OCCC1CCC2(CCN(Cc3ccccc3)CC2)C1` (stereo not given), the inhibition in data set [1] was 101%. Also, the IC50 (usually the concentration that gives 50% inhibition) in data set [3] turned out to be 1040 nM.

Consider `CCN1CCC2(CCC(COc3ccc(C(=O)NS(=O)(=O)C4CC4)cc3)C2)CC1` (stereo not given), for which the inhibition in [1] was found to be 1.4%.

Take `CCN1CCC2(CC1)CC(Oc1ccc(C(=O)NS(=O)(=O)C3CC3)cc1)C2`: the inhibition in [1] is 14.3%.

Regarding `CCN1CCC2(CCC(Oc3ccc(C(=O)NS(=O)(=O)C4CC4)cc3)C2)CC1` (stereo not given), the inhibition in [1] was found to be 16.8%.

On to `O=C(NS(=O)(=O)C1CC1)c1cc(Cl)c(OCCC2CCC3(CCN(Cc4ccco4)CC3)C2)cc1F` (stereo not given), for which the inhibition was 97.6% in data set [1] and 60% in data set [2]. The same compound yielded an IC50 in [3] of 610 nM.

Turning to `O=C(NS(=O)(=O)C1CC1)c1cc(F)c(OCCC2CCC3(CCN(Cc4ccccc4)CC3)C2)cc1F` (stereo not given), the inhibition in data set [1] was 99.7%. Also, the IC50 in data set [3] was 1150 nM.

Regarding `O=C(NS(=O)(=O)C1CC1)c1ccc(OCCC2CCC3(CCNCC3)C2)cc1` (stereo not given), in data set [1], the inhibition was found to be 8.4%.

Regarding `O=C(NS(=O)(=O)C1CC1)c1cc(Cl)c(OCCC2CCC3(CCN(Cc4ccsc4)CC3)C2)cc1F` (stereo not given), the inhibition in [1] was determined as 95.9%; in [2] it was 61.4%. Besides, the IC50 in [3] was 840 nM; in data set [4], 54700 nM.

Consider `CCN1CCC2(CCC(CCOc3ccc(C(=O)NS(=O)(=O)C4CC4)cc3)C2)CC1` (stereo not given), for which, in data set [1], the inhibition came to 24.2%.

On to `O=C(NS(=O)(=O)C1CC1)c1cc(Cl)c(OCCC2CCC3(CCN(Cc4cccc(C(F)(F)F)c4)CC3)C2)cc1F` (stereo not given), for which the values for the inhibition in data set [1] and in data set [2] were 55.9% and 16.1%, respectively.

In the case of `O=C(NS(=O)(=O)C1CC1)c1ccc(OC2CC3(CCNCC3)C2)cc1`, the inhibition in data set [1] is 15.4%.

As for `O=C(NS(=O)(=O)C1CC1)c1cc(Cl)c(OCCC2(F)CCN(Cc3cc(Cl)cc(Cl)c3)CC2)cc1F`, in data set [1], the inhibition was found to be 89.6%. Further, the values for the IC50 in data set [3], in [4] and in data set [5] were 1010 nM, 58900 nM and 2700 nM, respectively. In the data set listed under Homo sapiens, the Ratio IC50 was determined as 3.

With `O=C(NS(=O)(=O)C1CC1)c1ccc(OC2CCC3(CCNCC3)C2)cc1` (stereo not given), in [1], the inhibition was found to be 71.4%.

Turning to `O=C(NS(=O)(=O)C1CC1)c1cc(Cl)c(OCCC2CCC3(CCN(Cc4cccc5ccccc45)CC3)C2)cc1F` (stereo not given), the inhibition in data set [1] was determined as 97.1%; in data set [2], 33.5%.

As to `C[C@H](NCc1ccc(OCc2ccccc2F)cc1)C(N)=O` [RALFINAMIDE], the results for the inhibition in [1] and in [2] were 30.9% and 12.5%, respectively. Moreover, the midpoint of inhibition in [3], the IC50, lay at 35200 nM. The outcome in the data set on Mus musculus [6] was Active.

With `O=C(NS(=O)(=O)C1CC1)c1cc(Cl)c(OCCC2CCC3(CCN(CCCc4ccccc4)CC3)C2)cc1F` (stereo not given), the inhibition in [1] stood at 72.8%; in data set [2], 21.2%.

On to `O=C(NS(=O)(=O)C1CC1)c1cc(Cl)c(OCCC2CCC3(CCN(Cc4ccc(Cl)cc4)CC3)C2)cc1F` (stereo not given), for which the figures for the inhibition in data set [1] and in [2] were 87.2% and 23.8%, respectively.

For the compound `CCN1CCC2(CCC(CCOc3cc(F)c(C(=O)NS(=O)(=O)C4CC4)cc3Cl)C2)CC1` (stereo not given), the inhibition in [1] stood at 24.3%.

Regarding `O=C(NS(=O)(=O)C1CC1)c1ccc(OCC2CCC3(CCNCC3)C2)cc1` (stereo not given), in data set [1], the inhibition amounted to 0.2%.

Regarding `O=C(NS(=O)(=O)C1CC1)c1cc(Cl)c(OCCC2CCC3(CCN(Cc4cc(Cl)cc(Cl)c4)CC3)C2)cc1F` (stereo not given), in data set [1], the inhibition amounted to 77.2%.

Regarding `O=C(NS(=O)(=O)C1CC1)c1ccc(OCCC2CCC3(CCN(Cc4ccccc4)CC3)C2)cc1` (stereo not given), the inhibition in data set [1] amounted to 92%.

Turning to `O=C(NS(=O)(=O)C1CC1)c1ccc(OC2CCC3(CC2)CCN(Cc2ccccc2)CC3)cc1`, the inhibition in [1] was 13.7%.

Take `O=C(NS(=O)(=O)C1CC1)c1cc(Cl)c(OCCC2CCC3(CCN(CC4CCCCC4)CC3)C2)cc1F` (stereo not given): the inhibition is 65.5% in [1] and 20.1% in data set [2].

For the compound `O=C(NS(=O)(=O)C1CC1)c1ccc(OC2CCC3(CCN(Cc4ccccc4)CC3)C2)cc1` (stereo not given), the inhibition in data set [1] was 45.7%.

For `COc1ccc(CN2CCC3(CCC(CCOc4cc(F)c(C(=O)NS(=O)(=O)C5CC5)cc4Cl)C3)CC2)cc1` (stereo not given), the inhibition in [1] is 89.3%; in data set [2] it was 31.1%.

As to `O=C(NS(=O)(=O)C1CC1)c1cc(Cl)c(OCCC2CCC3(CCN(Cc4ccccc4)CC3)C2)cc1F` (stereo not given), the inhibition was 102% in data set [1] and 70.8% in data set [2]. Moreover, the results for the 50% inhibitory concentration (IC50) in data set [3], in data set [4] and in data set [5] were 460 nM, 46200 nM and 4880 nM, respectively. Moreover, the result in the data set on Mus musculus [6] was Active. Further, the result in the data set with Mus musculus [7] and with Mus musculus [8] was inactive. Besides, the values for the Activity entry (with Mus musculus [9]; in data set [10]) were “Dose-Dependent Effect” and “Non-Toxic”, respectively. Further, in the data set listed under Homo sapiens, the Ratio IC50 came out at 10.

The values above are taken from ChEMBL document CHEMBL5257116, “Design, synthesis, and biological evaluation of acyl sulfonamide derivatives with spiro cycles as NaV1.7 inhibitors for antinociception” (Bioorg Med Chem, 2023).
